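How tested: cells in 96-well plates exposed to compound for 48 hours at five concentrations. The concentration for 50% growth inhibition is given as GI50.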 The source made the active and inactive calls. Cut-off read from the data, not from the text of the source: active = GI50 up to about 1.1 µM and inactive = higher.
What was measured:
Assay in all cases: DTP human tumour cell line panel, 48 h
RXF 631 = test system: RXF 631
LXFL 529 = test system: LXFL 529
DMS-114 = test system: DMS-114
M19-MEL = test system: M19-MEL
SNB-78 = test system: SNB-78
XF498 = test system: XF498
BT-549 = test system: BT-549
HOP-18 = test system: HOP-18
DLD-1 = test system: DLD-1

For CC(C)(C)c1ccccc1NS(=O)(=O)c1ccccc1, the GI50 (RXF 631) was > 100 µM (inactive), the GI50 (LXFL 529) was > 100 µM (inactive) and the GI50 (DMS-114) was 49.9 µM (inactive). For the same compound, the GI50 (M19-MEL) was > 100 µM (inactive), the GI50 (SNB-78) was > 100 µM (inactive) and the GI50 (XF498) was > 100 µM (inactive).

With CCN(CC)c1ccc2cc(-c3nc(O)c4ccccc4n3)c(=N)oc2c1 the GI50 (BT-549) was > 100 µM (inactive).

In the case of CC1(C)C2CCC13C(=O)C1OC3(C2)C2C(=O)N(c3ccccc3)C(=O)C12 (stereo unspecified), the GI50 (RXF 631) is reported as > 100 µM (inactive), the GI50 (LXFL 529) is reported as > 100 µM (inactive) and the GI50 (DMS-114) is reported as > 100 µM (inactive). For the same compound, the GI50 (HOP-18) was > 100 µM (inactive) and the GI50 (SNB-78) was > 100 µM (inactive).

For N=C(c1ccccc1)N1CCCCC1, the GI50 (DLD-1) was > 100 µM (inactive), the GI50 (LXFL 529) was > 100 µM (inactive) and the GI50 (DMS-114) was > 100 µM (inactive). For the same compound, the GI50 (M19-MEL) was > 100 µM (inactive), the GI50 (HOP-18) was > 100 µM (inactive) and the GI50 (SNB-78) was > 100 µM (inactive).

In the case of c1ccc2c(c1)SCCCS2, the GI50 (BT-549) is reported as > 100 µM (inactive).

With Nc1nc(-c2ccco2)cc(-c2ccco2)n1 the GI50 (LXFL 529) was > 100 µM (inactive), the GI50 (DMS-114) was > 100 µM (inactive) and the GI50 (M19-MEL) was > 100 µM (inactive). For the same compound, the GI50 (XF498) was > 100 µM (inactive).

For COc1oc(C(=O)NC2CCCCC2)c(-c2ccc(Cl)cc2)c1S(=O)(=O)c1ccccc1, the GI50 (BT-549) was 5.55 µM (inactive).

In the case of C[C@]12CC[C@H]3[C@@H](CC=C4C[C@@H](N5CCCC5)CC[C@@]43C)[C@@H]1C[C@H](N1CCOCC1)[C@@H]2O, the GI50 (BT-549) is reported as > 100 µM (inactive).

With O=C(NC1=NC2C=CC([N+](=O)[O-])=CC2S1)C(=O)Nn1c(S)nc2ccccc2c1=O (stereo unspecified) the GI50 (BT-549) was 65.8 µM (inactive).

CC(C)Cn1cnc2c(Cl)nc3ccccc3c21 was tested, and the GI50 (BT-549) was 51.5 µM (inactive).

In the case of C=C1CC(O)C2C(=C)C(=O)OC2C2C(C)C(=O)CC12 (stereo unspecified), the GI50 (BT-549) is reported as 7.87 µM (inactive).

With COC(=O)[C@]12CCC(C)(C)C[C@H]1[C@H]1C(=O)C=C3[C@@]4(C)C=C(C#N)C(=O)C(C)(C)[C@@H]4CC[C@@]3(C)[C@]1(C)CC2 [BARDOXOLONE METHYL] the GI50 (BT-549) was 0.0339 µM (active).

For CCOc1ccc2c(c1)c(CC(=O)O)cn2C, the GI50 (BT-549) was > 100 µM (inactive).

CO/C(=N\N=C\c1ccc(C(F)(F)F)cc1)c1ccncc1 was tested, and the GI50 (BT-549) was > 10 µM (inactive).

In the case of N#CSc1ccc(S(N)(=O)=O)cc1, the GI50 (BT-549) is reported as > 100 µM (inactive).

CC(C)[C@H](C)/C=C/[C@@H](C)C1CC[C@H]2[C@@]34C=C[C@]5(C[C@@H](O)CC[C@]5(C)[C@H]3CC[C@]12C)OO4 (stereo partly specified) was tested, and the GI50 (BT-549) was 26.9 µM (inactive).

NC(=O)C1Cc2cc3c(cc21)OCO3 (stereo unspecified) was tested, and the GI50 (BT-549) was > 100 µM (inactive).

For COc1ccc(N[S+]([O-])c2c(C)cc(C)cc2C)cc1 (stereo unspecified), the GI50 (BT-549) was 1.79 µM (inactive).

CCOC1NC(=O)c2ccccc21 (stereo unspecified) was tested, and the GI50 (BT-549) was > 100 µM (inactive).

COC1=C(C)C(=O)c2c(cc3c(c2O)C(C)(CCC=C(C)C)C(C)O3)C1=O (stereo unspecified) was tested, and the GI50 (DLD-1) was > 100 µM (inactive), the GI50 (LXFL 529) was > 100 µM (inactive) and the GI50 (DMS-114) was > 100 µM (inactive). For the same compound, the GI50 (M19-MEL) was 10.1 µM (inactive), the GI50 (HOP-18) was > 48.2 µM (inactive) and the GI50 (SNB-78) was > 100 µM (inactive). The GI50 (XF498) was > 100 µM (inactive).

CC(=O)OC1COC(n2c(-c3ccc(Cl)cc3)cc(-c3ccccc3)c(C#N)c2=S)C(OC(C)=O)C1OC(C)=O (stereo unspecified) was tested, and the GI50 (BT-549) was 2.06 µM (inactive).

For Cn1ncnc1CCc1ccccc1, the GI50 (LXFL 529) was > 100 µM (inactive), the GI50 (DMS-114) was > 100 µM (inactive) and the GI50 (M19-MEL) was > 100 µM (inactive). For the same compound, the GI50 (HOP-18) was > 100 µM (inactive) and the GI50 (SNB-78) was > 100 µM (inactive).

CC1=NN(c2ccccc2)C(=O)/C1=C1\SC(c2ccccc2)(c2ccccc2)c2ccccc21 was tested, and the GI50 (BT-549) was > 100 µM (inactive).

O=C1/C(=C/c2ccc(Cl)cc2)N=C(c2ccccc2)N1c1nc2c(Cl)cc(Cl)cc2s1 was tested, and the GI50 (BT-549) was 28.5 µM (inactive).

With COC(=O)[C@H](Cc1ccccc1)NC(=O)c1ccc(CNC(=O)/C=C/c2csc(-c3ccccc3)n2)cc1 the GI50 (BT-549) was 29.9 µM (inactive).

In the case of O=C(CCN1CCCCC1CCO)Nc1ccc2c(c1)C(=O)c1ccc(NC(=O)CCN3CCCCC3CCO)cc1C2=O (stereo unspecified), the GI50 (DLD-1) is reported as 2.19 µM (inactive), the GI50 (LXFL 529) is reported as 2.32 µM (inactive) and the GI50 (DMS-114) is reported as 4.08 µM (inactive). For the same compound, the GI50 (M19-MEL) was 26.4 µM (inactive), the GI50 (HOP-18) was 2.25 µM (inactive) and the GI50 (SNB-78) was 3.2 µM (inactive).

For Nc1ncnc2c1ncc(=O)n2C1CC(O)C(CO)O1 (stereo unspecified), the GI50 (BT-549) was > 100 µM (inactive).

C[C@@H]1C[C@]2(C[C@@H](C)C3[C@@H](CC4(C)[C@@H]5CCC6C(C)(C)OC(=O)C=C[C@]67C[C@@]5(CC[C@]34C)OO7)O2)OC1=O (stereo partly specified) was tested, and the GI50 (DLD-1) was 52.7 µM (inactive), the GI50 (LXFL 529) was 31.6 µM (inactive) and the GI50 (DMS-114) was > 100 µM (inactive). The GI50 (HOP-18) was > 100 µM (inactive), the GI50 (SNB-78) was 52.5 µM (inactive) and the GI50 (XF498) was 17.6 µM (inactive).

In the case of COC(=O)C(=O)C(C(=O)C=C(C)C)C(=O)C(=O)Nc1ccc(Cl)cc1C (stereo unspecified), the GI50 (DLD-1) is reported as > 100 µM (inactive), the GI50 (RXF 631) is reported as > 100 µM (inactive) and the GI50 (LXFL 529) is reported as > 100 µM (inactive). The GI50 (DMS-114) was 92 µM (inactive), the GI50 (M19-MEL) was > 100 µM (inactive) and the GI50 (HOP-18) was > 100 µM (inactive).

For OCCSCc1cc2c(O)c(c1)Cc1cc(CSCCO)cc(c1O)Cc1cc(CSCCO)cc(c1O)Cc1cc(CSCCO)cc(c1O)C2, the GI50 (BT-549) was 3.3 µM (inactive).

With O/N=C\c1c2c(cc3c1CCC3)CCC2 the GI50 (BT-549) was > 100 µM (inactive).

For CCOC(=O)CCC(NC(=O)c1ccc(NCc2ccc3nc(-c4ccccc4)c(Cl)nc3c2)c2ccccc12)C(=O)OCC (stereo unspecified), the GI50 (BT-549) was > 100 µM (inactive).

In the case of Oc1c2c(nc3cc4c(cc13)OCO4)-c1ccccc1CC2, the GI50 (DLD-1) is reported as > 100 µM (inactive), the GI50 (RXF 631) is reported as > 100 µM (inactive) and the GI50 (LXFL 529) is reported as > 100 µM (inactive). For the same compound, the GI50 (DMS-114) was > 100 µM (inactive), the GI50 (M19-MEL) was > 100 µM (inactive) and the GI50 (XF498) was > 100 µM (inactive).

For N#C[BH2-][n+]1ccc(C(=O)NNCC(F)(F)F)cc1, the GI50 (BT-549) was > 100 µM (inactive).

Reference: ChEMBL document CHEMBL1201862, “PubChem BioAssay data set” (2004)
